# Legend:
# [1] = molecular target: Recombinant human soluble BACE1 catalytic domain (Homo sapiens (Human), UniProt P56817); experiment: BACE1 HTRF FRET Assay; assay type: biochemical; details: Ki calculated from IC50 using the Cheng-Prusoff equation; QSY7-APPswe-Eu substrate, pH 5.0; read-out: BACE-1 Ki
# Source text: Reagents: Na^+-Acetate pH 5.0; 1% Brij-35; Glycerol; Dimethyl Sulfoxide (DMSO); Recombinant human soluble BACE1 catalytic domain (>95% pure); APP Swedish mutant peptide substrate (QSY7-APP^swe-Eu): QSY7-EISEVNLDAEFC-Europium-amide.
# A homogeneous time-resolved FRET assay can be used to determine IC50 values for inhibitors of the soluble human BACE1 catalytic domain. This assay monitors the increase of 620 nm fluorescence that resulted from BACE1 cleavage of an APPswedish APP^swe mutant peptide FRET substrate (QSY7-EISEVNLDAEFC-Europium-amide). This substrate contains an N-terminal QSY7 moiety that serves as a quencher of the C-terminal Europium fluorophore (620 nm Em). In the absence of enzyme activity, 620 nm fluorescence is low in the assay and increased linearly over 3 hours in the presence of uninhibited BACE1 enzyme. Inhibition of BACE1 cleavage of the QSY7-APP^swe-Eu substrate by inhibitors is manifested as a suppression of 620 nm fluorescence.
# Varying concentrations of inhibitors at 3× the final desired concentration in a volume of 10 ul are preincubated with purified human BACE1 catalytic domain (3 nM in 10 μl) for 30 minutes at 30° C. in reaction buffer containing 20 mM Na-Acetate pH 5.0, 10% glycerol, 0.1% Brij-35 and 7.5% DSMO. Reactions are initiated by addition of 10 μl of 600 nM QSY7-APP^swe-Eu substrate (200 nM final) to give a final reaction volume of 30 μl in a 384 well Nunc HTRF plate. The reactions are incubated at 30° C. for 1.5 hours. The 620 nm fluorescence is then read on a Rubystar HTRF plate reader (BMG Labtechnologies) using a 50 millisecond delay followed by a 400 millisecond acquisition time window. Inhibitor IC50 values are derived from non-linear regression analysis of concentration response curves. Ki values are then calculated from IC50 values using the Cheng-Prusoff equation using a previously determined […] of 8 μM for the QSY7-APP^swe-Eu substrate at BACE1.
# [2] = molecular target: purified human autoBACE-2 (Homo sapiens (Human), UniProt Q9Y5Z0); experiment: BACE-2 Assay (BACE-HTRF assay); assay type: biochemical; details: Ki calculated from IC50 using the Cheng-Prusoff equation; QSY7-EISEVNLDAEFC-Eu-amide substrate, pH 5.0
# Chain of purified human autoBACE-2 (Q9Y5Z0 63-473 limits assumed): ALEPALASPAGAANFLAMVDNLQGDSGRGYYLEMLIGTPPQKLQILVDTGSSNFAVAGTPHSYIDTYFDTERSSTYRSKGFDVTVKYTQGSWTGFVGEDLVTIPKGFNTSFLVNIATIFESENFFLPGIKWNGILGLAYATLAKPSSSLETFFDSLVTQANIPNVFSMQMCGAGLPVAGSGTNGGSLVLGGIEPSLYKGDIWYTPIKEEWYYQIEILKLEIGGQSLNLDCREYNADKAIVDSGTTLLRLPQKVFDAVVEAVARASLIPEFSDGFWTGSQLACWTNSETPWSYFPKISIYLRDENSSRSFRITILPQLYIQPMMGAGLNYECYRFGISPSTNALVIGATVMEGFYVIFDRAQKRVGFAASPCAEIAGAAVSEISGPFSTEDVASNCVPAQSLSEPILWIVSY
# Method: Inhibitor IC50s at purified human autoBACE-2 are determined in a time-resolved endpoint proteolysis assay that measures hydrolysis of the QSY7-[…]-Eu-amide FRET peptide substrate (BACE-HTRF assay). […] DMSO is present at 5% final concentration in the assay. Following laser excitation of sample wells at 320 nm, the fluorescence signal at 620 nm is collected for 400 ms following a 50 μs delay on a RUBYstar HTRF plate reader (BMG Labtechnologies). Raw RFU data is normalized to maximum (1.0 nM BACE/DMSO) and minimum (no enzyme/DMSO) RFU values. […] The Ki values are calculated from the IC50 using the Cheng-Prusoff equation.
# Chain of Recombinant human soluble BACE1 catalytic domain (P56817 75-416): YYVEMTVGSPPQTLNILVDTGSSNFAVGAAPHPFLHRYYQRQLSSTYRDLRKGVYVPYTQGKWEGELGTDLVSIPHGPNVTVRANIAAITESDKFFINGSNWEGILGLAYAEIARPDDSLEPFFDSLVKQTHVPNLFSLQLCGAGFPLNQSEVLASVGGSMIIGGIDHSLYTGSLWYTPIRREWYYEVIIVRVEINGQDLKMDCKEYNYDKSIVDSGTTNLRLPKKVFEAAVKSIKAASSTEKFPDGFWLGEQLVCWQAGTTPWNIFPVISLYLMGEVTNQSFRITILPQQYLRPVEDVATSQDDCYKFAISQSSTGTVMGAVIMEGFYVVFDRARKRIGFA
Ki [1],Ki [2],Compound
1200 nM,298 nM,"CN1C(=N)N[C@@]2(c3cc(Br)ccc3F)COCC[C@H]2C1=O [Example 86, (4aR,8aS)-8a-(5-bromo-2-fluorophenyl)-2-imino-3-methylhexahydro-IH-pyrano[3,4-d]pyrimidin-4(4aH)-one]"
1110 nM,1380 nM,"COC(=O)[C@@H]1C[C@H]2C(=O)N(C)C(=N)N[C@@]2(c2ccc(F)cc2F)CO1 [Example 48, methyl (4aR,6S,8aS)-8a-(2,4-difluorophenyl)-2-imino-3-methyl-4-oxooctahydro-1H-pyrano[3,4-d]pyrimidine-6-carboxylate]"
636 nM,4610 nM,"CN1C(=N)N[C@@]2(c3cc(OCC(F)(F)F)ccc3F)CO[C@@H](C3CC3)C[C@H]2C1=O [Example 55, (4aR,6R,8aS)-6-cyclopropyl-8a-(2-fluoro-5-(2,2,2-trifluoroethoxy)phenyl)-2-imino-3-methylhexahydro-1H-pyrano[3,4-d]pyrimidin-4(4aH)-one]"
43.5 nM,41.3 nM,"C[C@H]1C[C@H]2C(=O)N(C)C(=N)N[C@@]2(c2cc(Oc3ncc(F)cc3F)ccc2F)CO1 [Example 79, (4aR,6S,8aS)-8a-(5-((3,5-difluoropyridin-2-yl)oxy)-2-fluorophenyl)-2-imino-3,6-dimethylhexahydro-1H-pyrano[3,4-d]pyrimidin-4(4aH)-one]"
206 nM,398 nM,"CN1C(=N)N[C@@]2(c3cc(C#N)ccc3F)CO[C@@H](C3CC3)C[C@H]2C1=O [Example 38, 3-((4aR,6R,8aS)-6-cyclopropyl-2-imino-3-methyl-4-oxohexahydro-1H-pyrano[3,4-d]pyrimidin-8a(8H)-yl)-4-fluorobenzonitrile]"
136 nM,627 nM,"CN1C(=N)N[C@@]2(c3cc(-c4cncnc4)ccc3F)CO[C@@H](C3CC3)C[C@H]2C1=O [Example 28, (4aR,6R,8aS)-6-cyclopropyl-8a-(2-fluoro-5-(pyrimidin-5-yl)phenyl)-2-imino-3-methylhexahydro-1H-pyrano[3,4-d]pyrimidin-4(4aH)-one]"
66 nM,64 nM,"CCCOc1ccc(F)c([C@]23CO[C@@H](C4CC4)C[C@H]2C(=O)N(C)C(=N)N3)c1 [Example 49, (4aR,6R,8aS)-6-cyclopropyl-8a-(2-fluoro-5-propoxyphenyl)-2-imino-3-methylhexahydro-1H-pyrano[3,4-d]pyrimidin-4(4aH)-one]"
4180 nM,1590 nM,"C[C@H]1C[C@H]2C(=O)N(C)C(=N)N[C@@]2(c2cc(=O)n(CC3CC3)cc2F)CO1 [Example 94, (4aR,6S,8aS)-8a-(1-(cyclopropylmethyl)-5-fluoro-2-oxo-1,2-dihydropyridin-4-yl)-2-imino-3,6-dimethylhexahydro-1H-pyrano[3,4-d]pyrimidin-4(4aH)-one]"
70 nM,17.2 nM,"CN1C(=N)N[C@@]2(c3cc(O)ccc3F)CO[C@@H](c3ccc(F)cc3)C[C@H]2C1=O [Example 84, (4aR,6R,8aS)-8a-(2-fluoro-5-hydroxyphenyl)-6-(4-fluorophenyl)-2-imino-3-methylhexahydro-1H-pyrano[3,4-d]pyrimidin-4(4aH)-one]"
13 nM,35 nM,"CN1C(=N)N[C@@]2(c3cc(Oc4ncncc4F)ccc3F)CO[C@@H](C3CC3)CC2C1=O (stereo partly drawn) [Example 58, (6R,8aS)-6-cyclopropyl-8a-(2-fluoro-5-((5-fluoropyrimidin-4-yl)oxy)phenyl)-2-imino-3-methylhexahydro-IH-pyrano[3,4-d]pyrimidin-4(4aH)-one]"
157 nM,71.3 nM,"C[C@H]1C[C@H]2C(=O)N(C)C(=N)N[C@@]2(c2cc(Oc3ccc(F)cn3)ccc2F)CO1 [Example 68, (4aR,6S,8aS)-8a-(2-fluoro-5-((5-fluoropyridin-2-yl)oxy)phenyl)-2-imino-3,6-dimethylhexahydro-1H-pyrano[3,4-d]pyrimidin-4(4aH)-one]"
629 nM,237 nM,"COC[C@H]1C[C@H]2C(=O)N(C)C(=N)N[C@@]2(c2ccc(F)cc2F)CO1 [Example 1, (4aR,6R,8aS)-8a-(2,4-difluorophenyl)-2-imino-6-(methoxymethyl)-3-methylhexahydro-1H-pyrano[3,4-d]pyrimidin-4(4aH)-one]"
52 nM,191 nM,"CN1C(=N)N[C@@]2(c3cc(Oc4ncccn4)ccc3F)CO[C@@H](C3CC3)C[C@H]2C1=O [Example 43, (4aR,6R,8aS)-6-cyclopropyl-8a-(2-fluoro-5-(pyrimidin-2-yloxy)phenyl)-2-imino-3-methylhexahydro-1H-pyrano[3,4-d]pyrimidin-4(4aH)-one]"
44.3 nM,31.5 nM,"C[C@H]1C[C@H]2C(=O)N(C)C(=N)N[C@@]2(c2cc(Oc3ccncc3F)ccc2F)CO1 [Example 74, (4aR,6S,8aS)-8a-(2-fluoro-5-((3-fluoropyridin-4-yl)oxy)phenyl)-2-imino-3,6-dimethylhexahydro-1H-pyrano[3,4-d]pyrimidin-4(4aH)-one]"
12 nM,102 nM,"Cc1cncc(Oc2ccc(F)c([C@]34CO[C@@H](C5CC5)C[C@H]3C(=O)N(C)C(=N)N4)c2)n1 [Example 17, (4aR,6R,8aS)-6-cyclopropyl-8a-(2-fluoro-5-((6-methylpyrazin-2-yl)oxy)phenyl)-2-imino-3-methylhexahydro-1H-pyrano[3,4-d]pyrimidin-4(4aH)-one]"
7 nM,5 nM,"C[C@H]1C[C@H]2C(=O)N(C)C(=N)N[C@@]2(c2cc(Oc3ncccc3F)ccc2F)CO1 [Example 19, (4aR,6S,8aS)-8a-(2-fluoro-5-((3-fluoropyridin-2-yl)oxy)phenyl)-2-imino-3,6-dimethylhexahydro-1H-pyrano[3,4-d]pyrimidin-4(4aH)-one]"
2 nM,4 nM,"C[C@H]1C[C@H]2C(=O)N(C)C(=N)N[C@@]2(c2cc(Oc3cc(C#N)ccn3)c(F)cc2F)CO1 [Example 9, 2-(2,4-difluoro-5-((4aR,6S,8aS)-2-imino-3,6-dimethyl-4-oxohexahydro-1H-pyrano[3,4-d]pyrimidin-8a(8H)-yl)phenoxy)isonicotinonitrile]"
21 nM,4 nM,"CN1C(=N)N[C@@]2(c3cc(OCC45CC(C4)C5)ccc3F)CO[C@@H](C3CC3)C[C@H]2C1=O [Example 54, (4aR,6R,8aS)-8a-(5-(bicyclo[1.1.1]pentan-1-ylmethoxy)-2-fluorophenyl)-6-cyclopropyl-2-imino-3-methylhexahydro-1H-pyrano[3,4-d]pyrimidin-4(4aH)-one]"
8 nM,98 nM,"C[C@H]1C[C@H]2C(=O)N(C)C(=N)N[C@@]2(c2cc(OCC34CC(C#N)(C3)C4)ccc2F)CO1 [Example 26, 3-((4-fluoro-3-((4aR,6S,8aS)-2-imino-3,6-dimethyl-4-oxohexahydro-1H-pyrano[3,4-d]pyrimidin-8a(8H)-yl)phenoxy)methyl)bicyclo[1.1.1]pentane-1-carbonitrile]"
13 nM,86 nM,CN1C(=N)N[C@@]2(c3cc(Oc4cccc(-c5cocn5)c4)ccc3F)CO[C@@H](C3CC3)C[C@H]2C1=O [Example 35]
180 nM,117 nM,"COC1CC(COc2ccc(F)c([C@]34CO[C@@H](C5CC5)C[C@H]3C(=O)N(C)C(=N)N4)c2)C1 (stereo partly drawn) [Example 53, (4aR,6R,8aS)-6-cyclopropyl-8a-(2-fluoro-5-((3-methoxycyclobutyl)methoxy)phenyl)-2-imino-3-methylhexahydro-1H-pyrano[3,4-d]pyrimidin-4(4aH)-one]"

Compound,Ki [1],Ki [2]
"CC(C)COc1ccc(F)c([C@]23CO[C@@H](C4CC4)C[C@H]2C(=O)N(C)C(=N)N3)c1 [Example 45, (4aR,6R,8aS)-6-cyclopropyl-8a-(2-fluoro-5-isobutoxyphenyl)-2-imino-3-methylhexahydro-1H-pyrano[3,4-d]pyrimidin-4(4aH)-one]",45 nM,25 nM
"(4aR,6S,8aS)-8a-(5-((4-chloropyridin-3-yl)oxy)-2-fluorophenyl)-2-imino-3,6-dimethylhexahydro-1H-pyrano[3,4-d]pyrimidin-4(4aH)-one [Example 75]",58.2 nM,23.3 nM

# Reference: patent US10047098B2, “C5-C6-oxacyclic fused iminopyrimidinone compounds as bace inhibitors, compositions, and their use” (Merck Sharp & Dohme Corp., priority 2014, dated 2018)
